Laboratory results taken from the supplement of paper PMC11451515.

System: SEM cells
Test: cell viability relative to DMSO control; higher = less cytotoxic
Conditions: 48 h
Outline: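 Before seeding, each leukemia line was adapted for at least four passages in each medium. NOMO1 or SEM cells (500 cells/well) and P12-Ichikawa cells (1000 cells/well) went into 1536-well plates at 5 μl, then received library compounds in DMSO by pin dosing across 11 threefold concentrations, 47 μM to 0.79 nM. Readout was CellTiter-Glo One luminescence after 48 h at 37°C, and viability is given as a per-plate percentage of DMSO wells, with cell-free wells as background.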

[1] = HPLM + 10% dialyzed FBS, 0.000781 µM
[2] = HPLM + 10% dialyzed FBS, 0.00234 µM
[3] = HPLM + 10% dialyzed FBS, 0.00702 µM
[4] = HPLM + 10% dialyzed FBS, 0.0211 µM
[5] = HPLM + 10% dialyzed FBS, 0.0632 µM
[6] = HPLM + 10% dialyzed FBS, 0.19 µM
[7] = HPLM + 10% dialyzed FBS, 0.569 µM
[8] = HPLM + 10% dialyzed FBS, 1.71 µM
[9] = HPLM + 10% dialyzed FBS, 5.12 µM
[10] = HPLM + 10% dialyzed FBS, 15.4 µM
[11] = HPLM + 10% dialyzed FBS, 46.1 µM
[12] = RPMI 5 mM glucose + 10% FBS, 0.000781 µM
[13] = RPMI 5 mM glucose + 10% FBS, 0.00234 µM
[14] = RPMI 5 mM glucose + 10% FBS, 0.00702 µM
[15] = RPMI 5 mM glucose + 10% FBS, 0.0211 µM
[16] = RPMI 5 mM glucose + 10% FBS, 0.0632 µM
[17] = RPMI 5 mM glucose + 10% FBS, 0.19 µM
[18] = RPMI 5 mM glucose + 10% FBS, 0.569 µM
[19] = RPMI 5 mM glucose + 10% FBS, 1.71 µM
[20] = RPMI 5 mM glucose + 10% FBS, 5.12 µM
[21] = RPMI 5 mM glucose + 10% FBS, 15.4 µM
[22] = RPMI 5 mM glucose + 10% FBS, 46.1 µM
[23] = RPMI 5 mM glucose + 10% dialyzed FBS, 0.000781 µM
[24] = RPMI 5 mM glucose + 10% dialyzed FBS, 0.00234 µM
[25] = RPMI 5 mM glucose + 10% dialyzed FBS, 0.00702 µM
[26] = RPMI 5 mM glucose + 10% dialyzed FBS, 0.0211 µM
[27] = RPMI 5 mM glucose + 10% dialyzed FBS, 0.0632 µM
[28] = RPMI 5 mM glucose + 10% dialyzed FBS, 0.19 µM
[29] = RPMI 5 mM glucose + 10% dialyzed FBS, 0.569 µM
[30] = RPMI 5 mM glucose + 10% dialyzed FBS, 1.71 µM
[31] = RPMI 5 mM glucose + 10% dialyzed FBS, 5.12 µM
[32] = RPMI 5 mM glucose + 10% dialyzed FBS, 15.4 µM
[33] = RPMI 5 mM glucose + 10% dialyzed FBS, 46.1 µM

SMILES	cell viability [1]	cell viability [2]	cell viability [3]	cell viability [4]	cell viability [5]	cell viability [6]	cell viability [7]	cell viability [8]	cell viability [9]	cell viability [10]	cell viability [11]	cell viability [12]	cell viability [13]	cell viability [14]	cell viability [15]	cell viability [16]	cell viability [17]	cell viability [18]	cell viability [19]	cell viability [20]	cell viability [21]	cell viability [22]	cell viability [23]	cell viability [24]	cell viability [25]	cell viability [26]	cell viability [27]	cell viability [28]	cell viability [29]	cell viability [30]	cell viability [31]	cell viability [32]	cell viability [33]
NC1CCC(N[C@@H]2C[C@H]2c2ccccc2)CC1 (stereo partly drawn)	75.5%	90%	87.5%	87.5%	92.9%	92.8%	93.7%	76.4%	83.2%	82.3%	81.5%	120%	126%	114%	115%	119%	124%	146%	106%	111%	105%	98.9%	84.2%	98.5%	99.8%	96.7%	98%	96.3%	106%	81.9%	92.4%	81.4%	74%
CNC(=O)[C@H](Cc1ccccc1)NC(=O)[C@H](CC(C)C)[C@H](CSc1cccs1)C(=O)NO	83%	82.9%	90%	96%	87.5%	110%	100%	95.7%	80.4%	57.7%	24.5%	95.9%	75.4%	96.3%	105%	74.8%	90.6%	89.8%	97.6%	77.7%	45.8%	25.4%	86.5%	69.4%	75.4%	82.2%	67.2%	81.7%	90.6%	78.4%	70.6%	40.4%	21.5%
Cc1cc(O)c2c3c4c(cc(O)c13)C(C)(C)C(=O)c1c(O)cc(O)c(c1-4)C2=O	104%	110%	108%	91.5%	120%	114%	106%	117%	98.7%	90.8%	66.1%												91.4%	90.9%	92%	94.3%	110%	113%	98%	84.2%	97.4%	88.6%	65.5%
CC1(C)[C@@H](O[C@H]2O[C@H](C(=O)O)[C@@H](O)[C@H](O)[C@H]2O[C@@H]2O[C@H](C(=O)O)[C@@H](O)[C@H](O)[C@H]2O)CC[C@]2(C)[C@H]3C(=O)C=C4[C@@H]5C[C@@](C)(C(=O)O)CC[C@]5(C)CC[C@@]4(C)[C@]3(C)CC[C@@H]12	116%	113%	117%	104%	145%	114%	143%	128%	150%	165%	163%																						
Cc1ccc(NC(=O)C2(c3ccc4c(c3)OC(F)(F)O4)CC2)nc1-c1cccc(C(=O)O)c1	106%	87.4%	109%	111%	93.5%	13.7%	16.4%	16.7%	9.88%	9.04%	6.17%	87.2%	86.6%	91.6%	91.5%	62.6%	11.1%	10.5%	10.5%	8.17%	7.53%	5.47%	97.9%	98.3%	97.7%	107%	71.9%	14.9%	13.2%	16.6%	9.71%	8.66%	6.45%
COc1cc(N2CCC(O)CC2)ccc1Nc1cc(Nc2ccccc2[S+](=O)([O-])C(C)C)c2cc[nH]c2n1	87.5%	71.5%	79.4%	79.2%	81.4%	58.7%	34.3%	83.4%	44%	17.7%	22.2%												93.2%	94.6%	82.4%	96.8%	86.3%	60.7%	27.6%	81.1%	53.9%	21.1%	18.3%
C[C@H](NC(=O)C(=O)Nc1ccccc1C(C)(C)C)C(=O)N[C@@H](CC(=O)O)C(=O)COc1c(F)c(F)cc(F)c1F	89.4%	106%	103%	73.1%	117%	113%	123%	104%	58.4%	12.6%	18.2%	99.5%	103%	117%	78%	119%	112%	127%	104%	64.9%	9.34%	5.77%	90.8%	109%	104%	74.8%	118%	114%	113%	109%	56.9%	10.3%	6.8%
CCC(=O)O[C@@]1([C@@H](C)C[C@H]2[C@@H]3CCC/4=C/C(=O)/C=C\[C@]4(C)[C@@]3(F)[C@@H](O)C[C@]12C)C(=O)CCl	86%	92.1%	91.3%	57.7%	71.1%	69.8%	57%	72.3%	61.8%	66.4%	63.4%	88.5%	95.4%	95.9%	51.3%	67.8%	62.6%	65.1%	66.1%	67.6%	56%	66.9%	85.2%	81%	91.4%	49.4%	63.3%	64.6%	64.8%	54.1%	64.1%	55.6%	40.7%
Nc1nc(-c2nn(Cc3ccccc3F)c3ncccc23)nc(N)c1N1CCOCC1	88.9%	87.4%	96%	96.1%	101%	110%	99.3%	116%	104%	93.5%	89.8%	98%	84.6%	103%	115%	106%	111%	111%	121%	94.2%	89.6%	80.6%	93.8%	85.6%	113%	99.9%	104%	85.2%	104%	126%	101%	96.2%	90.9%
